In patent publication US20090123501A1, “INHIBITION OF THE SH2-DOMAIN CONTAINING PROTEIN TYR-PHOSPHATASE, SHP-1, TO ENHANCE VACCINES” (Baylor College of Medicine, priority 2007, published 2009):

Legend:
[1] = test system: SHP-1 mRNA; assay: SHP-1 mRNA knock-down by quantitative RT-PCR in RAW cells; type: cell-based, murine; conditions: relative to no virus treatment
Description: Two mouse SHP-1 specific small hairpin RNAs (shRNA) sequences, 272 and 1149, (referred to by their nucleotide position from the start site of the coding sequence in Genbank mRNA Accession #BC012660) were designed and cloned into the adenoviral vector pAd-BLOCK-iT-DEST RNAi (Invitrogen, Carlsbad, Calif.) which provides U6 polymerase […] promoter-driven expression of the shRNA. The exemplary shRNA sequences Ad5-shRNA#1149 (SEQ ID NO:11) and Ad5-shRNA#272 (SEQ ID NO:12) are provided as follows: […] (SEQ ID NO:11) and […] (SEQ ID NO:12), wherein sequence underlined in the shRNA is the exemplary SHP-1 specific palandromic 21-mer. Adenovirus carrying the appropriate sequence were produced and expanded in HEK-293 cells (ATCC Manassas, Va.). These viruses were then plaque purified and the ability to knock-down SHP-1 mRNA was tested in RAW cells, a murine macrophage-like cell line, by quantitative RT-PCR and are shown as a percent of the no virus treatment (FIG. 2A and FIG. 2B). Adenovirus expressing green fluorescent protein was used as a negative control for viral treatment (FIG. 2C). […] The ability of this shRNA to knock down SHP-1 protein was examined by western blot (FIG. 2D). A large scale, high titer, preparation of Ad-shRNA#1149 was produced by the Viral Vector Core Laboratory at Baylor College of Medicine and used in subsequent studies.

[2] = test system: endogenous SHP-1 protein; assay: Knock-down of endogenous SHP-1 protein in D2SC/1 cells, western blot with densitometry; type: cell-based, murine; conditions: D2SC/1 cells, 40,000 viral particles/cell
Method: The high titer adenoviral preparation of SHP-1 specific Ad-shRNA#1149 (referred to from this point on as Ad5-SHP-1-shRNA), produced in the Viral Vector Core Laboratory at Baylor College of Medicine, was tested for its ability to knock-down endogenous SHP-1 protein in D2SC/1 cells, a murine dendritic-like cell line. […] A titration of Ad5-SHP-1 shRNA viral particles was performed and SHP-1 protein expression was determined by western blot (FIG. 3). […] This dose was chosen for subsequent studies using mouse bone marrow derived dendritic cells (BMDCs).
FIG. 3 describes the knock-down of endogenous SHP-1 using high titer Ad5-SHP-1 shRNA. SHP-1 protein expression was measured in D2SC/1 cells following infection with Ad5-SHP-1 at varying doses as shown. Protein levels were analyzed by western blot with a SHP-1 specific antibody. As controls, SHP-1 expression is shown for uninfected cells and those infected with the Ad5-scrambled shRNA. The blot was also probed with a calnexin specific antibody as a loading control. Densitometry analysis of the western is shown below as a percentage of SHP-1 expression level relative to cells infected with Ad5-scrambled shRNA.

[3] = test system: D2SC/1 cells; assay: Cell death of D2SC/1 cells after adenoviral infection; type: cell-based, murine; conditions: D2SC/1 cells, 40,000 viral particles/cell
[4] = test system: BMDCs; assay: DC survival by annexin V and propidium iodide flow cytometry; type: cell-based, C57BL/6 mice; conditions: CD11c purified BMDCs
Method: Primary bone marrow-derived dendritic cells (BMDCs) were prepared from wild type mice in the following manner: Bone marrow cells were flushed from the femurs and tibias of C57BL/6 mice and cultured for 6 days in RPMI media supplemented with 10% FBS, 10 ng/mL IL-4 and 10 ng/mL GMCSF along with antibiotics. On day 6, dendritic cells (DCs) were either purified by magnetic bead assisted cell sorting (MACS; Miltenyi Biotec, Auburn, Calif.) prior to adenoviral transduction, or used as unpurified bulk DCs that were then transduced with adenovirus.
BMDCs were prepared as described above and purified by CD11c (a marker for DC) MACS. Purified DCs were transduced with either Ad5-SHP1-shRNA or Ad5-scrambled-shRNA or left untreated and the virus was washed away following a two hour exposure. Cell survival was determined at 24 hours, 48 hours and 72 hours after infection by annexin V and propidium iodide (PI) staining and analyzed by flow cytometry. Annexin V binds to phosphatidylserine and is an early marker of apoptosis. PI is a DNA intercalating dye that can only enter cells when their membrane is integrity is disrupted and is a marker of cells late in the apoptotic process. Viral infection of DCs causes cells to undergo apoptosis where approximately 50% were dead or dying within the first 24 hours and 85% were dead or dying by 72 hours post-infection (FIG. 8 Ad5-scrambled-shRNA). […]

[5] = test system: B16 tumors; assay: DC vaccination of mice bearing ectopic B16 melanoma tumors; type: in vivo, C57BL/6 mice
Method: The B16 melanoma, which is both aggressive and poorly immunogenic, expresses tyrosinase related protein-2 (Trp-2) of which peptide, […] (SEQ ID NO:13), is recognized by CD8^+ T cells in the context of H-2K^b. B16 represents a much more difficult tumor to treat than TRAMP and is considered the “gold standard” for ectopic tumor models in the C57BL/6 background. BMDCs were prepared as described above, pulsed with the Trp-2 and then transduced with either Ad5-SHP-1 shRNA or the control Ad5-scrambled-shRNA virus at 40,000 viral particles/cell. 6-8 week C57BL/6 mice, bearing B16 tumors (5×10^5 cells injected s.c. on the dorsal flank three days prior to vaccination), were given a single i.p. vaccination with 2×10^6 treated DCs or left untreated. Tumors were measured every 2-4 days until termination of the experiment and tumor volume was calculated as described above. […] To determine if this difference was statistically significant, ANOVA and Tukey-Kramer HSD multiple comparisons test were performed.
BMDCs were prepared as described above, pulsed with the Trp-2 and then transduced with either Ad5-SHP-1 shRNA or the control Ad5-scrambled-shRNA virus at 40,000 viral particles/cell. […] Tumors were measured every 2-4 days until termination of the experiment and tumor volume was calculated as described above. […]

CACCGGAGCATGACACAGCAGAATACGAATATTCTGCTGTGTCATGCTCC (chemistry not given here) [Ad5-SHP-1-shRNA]
reduction in SHP-1 mRNA [1]: > 5 fold reduction
decrease in endogenous SHP-1 protein [2]: 95%
cell death [3]: minimal cell death
cells dead or dying ([4]; by 72 hours post-infection): 55%
cells dead or dying ([4]; within the first 24 hours post-infection): 35%
B16 mean tumor volume (growth curves) ([5]; Trp-2 pulsed DCs, 40,000 viral particles/cell, single i.p. 2×10^6 DCs, beginning at day 18): markedly smaller mean tumor volumes
B16 mean tumor volume (ANOVA) ([5]; Trp-2 pulsed DCs, compared with either control group): significantly lower mean tumor volume
